The text below walks through data of ChEMBL document CHEMBL1153335, “Incorporation of neutral C-terminal residues in 3-amidinophenylalanine-derived matriptase inhibitors” (Bioorg Med Chem Lett, 2009).

Data set [1] concerns the target Prothrombin (Homo sapiens, UniProt P00734). Description: Inhibition of thrombin.
Data set [2] concerns the target T1, Suppressor of tumorigenicity 14 protein (Homo sapiens, UniProt Q9Y5Y6).
T1 sequence (Q9Y5Y6 whole entry): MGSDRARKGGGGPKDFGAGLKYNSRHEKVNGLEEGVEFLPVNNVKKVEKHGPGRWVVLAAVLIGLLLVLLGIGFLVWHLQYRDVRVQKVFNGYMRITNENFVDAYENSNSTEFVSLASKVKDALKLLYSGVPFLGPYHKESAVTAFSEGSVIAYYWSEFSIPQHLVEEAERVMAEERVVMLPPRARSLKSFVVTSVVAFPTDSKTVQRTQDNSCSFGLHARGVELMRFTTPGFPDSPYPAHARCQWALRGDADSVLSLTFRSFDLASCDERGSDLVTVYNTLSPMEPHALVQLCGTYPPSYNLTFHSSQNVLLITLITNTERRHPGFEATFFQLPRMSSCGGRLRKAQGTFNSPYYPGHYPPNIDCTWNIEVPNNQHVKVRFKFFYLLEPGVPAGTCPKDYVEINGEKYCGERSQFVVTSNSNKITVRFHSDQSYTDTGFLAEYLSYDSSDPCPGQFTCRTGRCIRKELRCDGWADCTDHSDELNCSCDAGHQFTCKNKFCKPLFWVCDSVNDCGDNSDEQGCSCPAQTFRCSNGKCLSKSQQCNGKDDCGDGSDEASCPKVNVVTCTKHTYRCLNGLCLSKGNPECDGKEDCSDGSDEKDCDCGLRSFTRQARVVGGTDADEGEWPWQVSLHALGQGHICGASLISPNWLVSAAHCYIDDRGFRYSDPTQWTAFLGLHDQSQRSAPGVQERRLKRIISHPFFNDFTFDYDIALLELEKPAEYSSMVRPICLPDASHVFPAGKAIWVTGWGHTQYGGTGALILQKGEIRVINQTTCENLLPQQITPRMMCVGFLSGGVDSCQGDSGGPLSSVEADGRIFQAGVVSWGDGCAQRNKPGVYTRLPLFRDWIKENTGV
As to the kind of experiment: Inhibition of matriptase.

Data set [3] deals with Coagulation factor X (Homo sapiens, UniProt P00742). Description: Inhibition of factor 10a.
Data set [4] addresses Urokinase-type plasminogen activator (Homo sapiens, UniProt P00749). As to the kind of experiment: Inhibition of uPA.
The target of data set [5] is Plasminogen (Homo sapiens, UniProt P00747). As to the kind of experiment: Inhibition of plasmin.
Data set [6] concerns Rattus norvegicus. Description: Cmax in rat assessed as N-hydroxy-melagatran level at 20 mg/kg, po after 120 mins. Type of data set: ADME, organism-based. Details: dose 20 mg/kg, route oral. The conditions noted are these: in vivo, 2 h.
Data set [7] has as its system Rattus norvegicus. Description: Cmax in rat assessed as melagatran level at 20 mg/kg, po after 120 mins. Type of data set: ADME, organism-based. The conditions noted are these: in vivo, 2 h. Also noted: dose 20 mg/kg, route oral.

The structures appear in SMILES notation.

Sequence of Coagulation factor X (P00742 41-179 limits assumed): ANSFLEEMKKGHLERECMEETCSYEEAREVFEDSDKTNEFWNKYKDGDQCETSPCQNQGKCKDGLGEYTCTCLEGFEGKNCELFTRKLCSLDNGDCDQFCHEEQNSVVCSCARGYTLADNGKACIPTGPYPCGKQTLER
Sequence of Coagulation factor X (P00742 235-488 limits assumed): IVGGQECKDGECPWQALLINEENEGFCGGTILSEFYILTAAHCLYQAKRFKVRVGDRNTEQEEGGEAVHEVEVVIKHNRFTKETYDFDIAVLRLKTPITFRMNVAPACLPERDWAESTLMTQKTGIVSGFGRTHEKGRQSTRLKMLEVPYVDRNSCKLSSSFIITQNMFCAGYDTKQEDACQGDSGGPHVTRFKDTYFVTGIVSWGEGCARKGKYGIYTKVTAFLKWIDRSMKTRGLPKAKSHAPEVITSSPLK
Sequence of Plasminogen (P00747 97-580 limits assumed): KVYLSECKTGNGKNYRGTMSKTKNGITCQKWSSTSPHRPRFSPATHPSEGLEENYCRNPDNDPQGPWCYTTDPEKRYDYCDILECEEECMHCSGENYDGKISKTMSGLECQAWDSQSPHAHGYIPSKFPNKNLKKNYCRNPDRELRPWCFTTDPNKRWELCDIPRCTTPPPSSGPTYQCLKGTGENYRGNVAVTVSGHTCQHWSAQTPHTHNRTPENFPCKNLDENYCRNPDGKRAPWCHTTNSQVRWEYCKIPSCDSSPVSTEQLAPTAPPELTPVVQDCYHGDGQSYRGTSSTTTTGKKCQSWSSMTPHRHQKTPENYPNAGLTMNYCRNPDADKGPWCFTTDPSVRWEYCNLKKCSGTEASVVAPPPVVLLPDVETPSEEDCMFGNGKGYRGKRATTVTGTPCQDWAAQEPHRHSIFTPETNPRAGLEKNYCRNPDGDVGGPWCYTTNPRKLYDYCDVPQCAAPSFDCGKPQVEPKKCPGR
Sequence of Plasminogen (P00747 581-810 limits assumed): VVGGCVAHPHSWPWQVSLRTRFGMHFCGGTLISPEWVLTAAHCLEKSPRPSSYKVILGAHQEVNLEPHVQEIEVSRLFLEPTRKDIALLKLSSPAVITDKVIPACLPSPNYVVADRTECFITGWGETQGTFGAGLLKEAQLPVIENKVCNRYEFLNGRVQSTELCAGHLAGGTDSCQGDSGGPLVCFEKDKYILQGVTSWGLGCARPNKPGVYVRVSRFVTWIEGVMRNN

With `CNC(=O)CCC(=O)N1CCN(C(=O)[C@H](Cc2cccc(C(=N)N)c2)NS(=O)(=O)c2cccc(NC(=O)CCN)c2)CC1`, the Ki (usually the dissociation constant of the complex between target and ligand, obtained from inhibition or displacement) in data set [1] turned out to be 29 µM; in data set [2] it was 0.053 µM; in data set [3], 44 µM; in data set [4], 16.9 µM; in data set [5], 3.6 µM.
With `CNC(=O)CCCC1CCN(C(=O)[C@H](Cc2cccc(C(=N)N)c2)NS(=O)(=O)c2cccc(NC(=O)CCN)c2)CC1`, the Ki in data set [1] was determined as 0.85 µM; in data set [3], 10 µM; in data set [4] it was 3.3 µM; in data set [5], 1.6 µM.
For the compound `N=C(N)c1cccc(C[C@H](NS(=O)(=O)c2cccc(NC(=O)CCN)c2)C(=O)N2CCC(Cc3ccccc3)CC2)c1`, the Ki in data set [1] turned out to be 0.35 µM; in data set [2], 0.017 µM; in data set [3] it was 3.4 µM; in data set [4], 2.2 µM; in data set [5] it was 2.8 µM.
For `COC(=O)[C@H]1CCCCN1C(=O)[C@H](Cc1cccc(C(=N)N)c1)NS(=O)(=O)c1cccc(NC(=O)CCN)c1`, in that order: 24.2 µM, 0.1 µM, 0.1 µM, 76 µM and 4.9 µM.
For `COC(=O)[C@@H]1CCCCN1C(=O)[C@H](Cc1cccc(C(=N)N)c1)NS(=O)(=O)c1cccc(NC(=O)CCN)c1`, in that order: 10.6 µM, 2.4 µM, 127 µM, 126 µM and 69.4 µM.
As to `N=C(N)c1cccc(C[C@H](NS(=O)(=O)c2cccc(NC(=O)CCN)c2)C(=O)N2CCC(CCCC(N)=O)CC2)c1`, the Ki in data set [1] was 0.67 µM; in data set [3] it was 8.2 µM; in data set [4], 2.1 µM; in data set [5] it was 2.9 µM.
Turning to `N=C(N)c1cccc(C[C@H](NS(=O)(=O)c2cccc(NC(=O)CCN)c2)C(=O)N2CCC(C(N)=O)CC2)c1`, the Ki in data set [1] amounted to 1.25 µM; in data set [2], 0.013 µM; in data set [3] it was 2.5 µM; in data set [4] it was 3.3 µM; in data set [5], 1.2 µM.
For `N=C(N)c1cccc(C[C@H](NS(=O)(=O)c2cccc(NC(=O)CCN)c2)C(=O)N2CCCCC2)c1`, in that order: 0.27 µM, 0.033 µM, 10 µM, 2.6 µM and 3.3 µM.
For `N=C(N)c1cccc(C[C@H](NS(=O)(=O)c2cccc(NC(=O)CCN)c2)C(=O)N2CCNCC2)c1`, in that order: 71.7 µM, 0.037 µM, 2.1 µM, 0.88 µM and 2.56 µM.
For `CC1CCCCN1C(=O)[C@H](Cc1cccc(C(=N)N)c1)NS(=O)(=O)c1cccc(NC(=O)CCN)c1` (some centres not stated), in that order: 0.395 µM, 0.47 µM, 17 µM, 34.5 µM and 4.5 µM.
Turning to `CC1CCN(C(=O)[C@H](Cc2cccc(C(=N)N)c2)NS(=O)(=O)c2cccc(NC(=O)CCN)c2)CC1`, the Ki in data set [1] came to 0.11 µM; in data set [2] it was 0.053 µM; in data set [3], 4.4 µM; in data set [4] it was 3 µM; in data set [5], 6.2 µM.
Regarding `N=C(N)c1cccc(C[C@H](NS(=O)(=O)c2cccc(NC(=O)CCN)c2)C(=O)N2CCCC(C(N)=O)C2)c1` (some centres not stated), the Ki came to 2.1 µM in data set [1], 15 µM in data set [3], 7.4 µM in data set [4] and 1.3 µM in data set [5].
`N=C(N)c1cccc(C[C@H](NS(=O)(=O)c2cccc(NC(=O)CCN)c2)C(=O)N2CCCC[C@@H]2C(=O)O)c1`: the Ki in data set [1] came to 2.3 µM; in data set [2], 0.18 µM; in data set [3] it was 11 µM; in data set [4], 7.3 µM; in data set [5], 9.4 µM.
For `N=C(N)c1cccc(C[C@H](NS(=O)(=O)c2cccc(NC(=O)CCN)c2)C(=O)N2CCCC[C@H]2C(=O)O)c1`, in that order: 159 µM, 11 µM, 30 µM, 193 µM and 79 µM.
For `N=C(N)c1cccc(C[C@H](NS(=O)(=O)c2cccc(NC(=O)CCN)c2)C(=O)N2CCC(CCCC(=O)O)CC2)c1`, the Ki in data set [1] was 14 µM; in data set [3], 18 µM; in data set [4], 17 µM; in data set [5], 3.3 µM.
For `COC(=O)CCCC1CCN(C(=O)[C@H](Cc2cccc(C(=N)N)c2)NS(=O)(=O)c2cccc(NC(=O)CCN)c2)CC1`, the Ki in data set [1] was determined as 0.6 µM; in data set [3], 6.1 µM; in data set [4] it was 2.5 µM; in data set [5] it was 2.8 µM.
As for `N=C(N)c1cccc(C[C@H](NS(=O)(=O)c2cccc(NC(=O)CCN)c2)C(=O)N2CCN(c3ccc(O)cc3)CC2)c1`, the Ki in data set [1] stood at 14.5 µM; in data set [2], 0.15 µM; in data set [3] it was 2.5 µM; in data set [4], 8.37 µM; in data set [5] it was 2.5 µM.
For `N=C(N)c1cccc(C[C@H](NS(=O)(=O)c2cccc(NC(=O)CCN)c2)C(=O)N2CCN(C(=O)OCc3ccccc3)CC2)c1`, the Ki in data set [1] amounted to 1.4 µM; in data set [2] it was 0.0075 µM; in data set [3], 19 µM; in data set [4], 3.3 µM; in data set [5] it was 1.3 µM.
For `CCOC(=O)N1CCN(C(=O)[C@H](Cc2cccc(C(=N)N)c2)NS(=O)(=O)c2cccc(NC(=O)CCN)c2)CC1`, in that order: 5.1 µM, 0.065 µM, 26 µM, 9.2 µM and 13.4 µM.
With `CCOC(=O)CN[C@@H](C(=O)N1CC[C@H]1C(=O)NCc1ccc(/C(N)=N\O)cc1)C1CCCCC1` [XIMELAGATRAN], the Cmax (in general, the highest concentration seen after dosing) in data set [6] stood at 1100 nM; in data set [7], 1000 nM.
